From patent publication US20230203094A1, “Composition Comprising Thermosensitive Gel and Oligopeptide, and Use Thereof” (International Frontier Technology Laboratory, Inc., priority 2019, published 2023)

Tested on: human keratinocyte cell (KAC Co., Ltd.: KER110)
Assay: Cell proliferation test (Cell Counting Kit-8) in TGP culturing substrate
Type: cell-based
Conditions: 7 days culture, control = 100%, p < 0.01 (Dunnett)
Procedure: human keratinocyte cell (KAC Co., Ltd.: KER110)
the composition of the present disclosure comprising the polymer compound (TGP in Preparation Example 1) and oligopeptide of the present disclosure.
Frozen human keratinocyte cells (KAC Co., Ltd.: KER110) were dissolved in warm water at 37° C., suspended in EpiLife Medium (Thermo Fisher Scientific, Inc.: MEPI500CA) to which Human Keratinocyte Growth Supplement (HKGS) (Thermo Fisher Scientific, Inc.: S0015) was added, seeded in a 25 cm^2 flask, and cultured at 37° C. in an atmosphere containing 5% CO2.
The cultured cells were washed with DPBS (Thermo Fisher Scientific, Inc.: 14190144), and a trypsin solution (Thermo Fisher Scientific, Inc.: 12604013) was added to the cultured cells to recover cells and was centrifuged at 1,000 rpm for three minutes. After the centrifugation, supernatant was removed. A cell suspension obtained by adding a culture solution to a cell sediment was seeded in a 25 cm^2 flask and subcultured at 37° C. in an atmosphere containing 5% CO2.
The tripeptide in Preparation Example 3 was dissolved in a culture medium to prepare six samples having concentrations of 1 µM, 3 µM, 10 µM, 30 µM, 100 µM, and 1000 µM. A control includes only a culture medium.
The polymer compound (TGP in Preparation Example 1) of the present disclosure is added into a 48-well plate and freeze-dried. 120 µL of the six samples of the above concentrations and the control culture medium were added to the respective wells, and each mixture was dissolved with cooling at 4° C. overnight.
30 µL of a cell suspension recovered through the same procedure as the subculture operation was seeded in the polymer compound of the present disclosure in the 48-well plate and gelled at 37° C. for 30 minutes in an atmosphere containing 5% CO2. Then, 300 µL of the six samples of the above concentrations and control culture medium were layered and cultured at 37° C. in an atmosphere containing 5% CO2.
After culturing for 7 days, 250 µL of culture supernatant was removed, 60 µL of Cell Counting Kit-8 (Doujin Kagaku Co., Ltd.) was added and the mixture was reacted overnight at 37° C. in an atmosphere containing 5% CO2. 80 µL of the supernatant of an obtained reaction product was dispensed into a 96-well plate. This supernatant was measured with a microplate reader at a measurement wavelength of 450 nm to evaluate cell proliferation.
The cell proliferation rates of 1 µM, 3 µM, 10 µM, 30 µM, 100 µM, and 1000 µM samples were compared with that of a control, and the results are shown in Table 1 below.

CC[C@H](C)[C@H](NC(=O)[C@@H]1CCCN1)C(=O)NCC(=O)O (racemic) [Preparation Example 3, prolyl-isoleucyl-glycine]
Cell Proliferation Rates (1 µM tripeptide in TGP substrate): 114% | Cell Proliferation Rates (3 µM tripeptide in TGP substrate): 116% | Cell Proliferation Rates (10 µM tripeptide in TGP substrate): 118% | Cell Proliferation Rates (30 µM tripeptide in TGP substrate): 126% | Cell Proliferation Rates (100 µM tripeptide in TGP substrate): 126% | Cell Proliferation Rates (1000 µM tripeptide in TGP substrate): 128%
